Data from patent publication US12648927B2, “Compositions and methods of enhancing immunotherapies” (Cha Therapeutics, Inc., priority 2018, dated 2026).

Columns and labels:
[1] = system: HLA-DRB5 (MHC II); experiment: IFN stimulated gene expression by qRT-PCR (HLA-DRB5), TNBC human xenograft tumors; assay type: in vivo; conditions: single components vs combination
Description: It was tested in 6 treated and 5 untreated tumors. *P<0.05, **P<0.01, ***P<0.005, ****P<0.001. Data represented as mean±SEM.

[2] = system: PDL-1; experiment: PDL-1 gene expression by qRT-PCR, human MDA-MB-231 xenograft tumors; assay type: in vivo; conditions: human tumors in immune compromised mice, 4-5 mice each group
Description: Data represented as mean±SEM.

| SMILES | HLA-DRB5 (MHC II) gene expression [1] | relative gene expression of PDL-1, increase [2] [fold] |
| --- | --- | --- |
| Nc1ncn([C@H]2C[C@H](O)[C@@H](CO)O2)c(=O)n1 [DAC, decitabine] | no significant effect | 2 |
| O=C(O[C@@H]1Cc2c(O)cc(O)cc2O[C@@H]1c1cc(O)c(O)c(O)c1)c1cc(O)c(O)c(O)c1 [EGCG, epigallocatechin gallate] | no significant effect |  |
